The test system of series [1] is Caco-2/HT29-MTX-E12 transwell model. Kind of series: Ferritin formation in intestinal barrier model (bioavailability of iron). It is filed as cell-based, Human. The protocol:
Human Caco-2(enterocytes) and HT29-MTX-E12 (goblet) cells grown on a semi-permeable membrane comprise the intestinal barrier model. The co-cultures were grown on transwells as described below: • Caco-2 cells and HT29-MTX-E12 cells flasks were passaged when ˜90% confluent. • Cells were counted using a haemocytometer (or Coulter counter) to determine cell number/mL. • 0.6 mL growth media (no cells) was added to basolateral chamber of transwells. • 0.2 mL Caco-2/HT29-MTX-E12 cell solution was carefully added into apical chamber to achieve 3.6×104 Caco-2 and 4×10^3 HT29-MTX cells. • Co-cultures were grown on transwells for 21 days with media changed every 2-3 days. • At 21 days transepithelial electric resistance (or TEER) was measured using a Millicell voltohmeter from the apical to basolateral chamber (FIG. 1). These measurements indicate integrity of cell layer ensuring the cells are polarised and an intact barrier is ready for experimentation. […] Treatments were removed, replaced with HBSS, and incubated overnight. • After 16-18 hours cells (on apical side) were washed with PBS before trypsin was applied to remove cells from transwell membranes. • Cells were collected by centrifuging for 5 minutes. • Abcam ferritin assay was conducted according to manufacturer's instructions.
Results from the ferritin assay were analysed for significant differences using unpaired t tests. Differences were deemed significant when P<0.05. All statistical analyses were performed using GraphPad Prism 5 software.
All samples treatments were performed in the presence of 80 μM ascorbic acid.

A short description of series [2]: Iron binding by fluorescence emission scan. To be noted: 1 mg/mL protein, 0-32 mM iron chloride, excitation 498 nm. The protocol: Phycoerythrin extract from Example 1 (extraction included ultrasound treatment) was dissolved at a concentration of 2 mg/mL in 20 mM sodium phosphate buffer, pH 7 containing 0.02% sodium azide. Iron (II) chloride was dissolved in the same buffer at an initial concentration of 100 mM. The dissolved phycoerythrin extract was mixed 1:1 with a concentration series of iron chloride to give a final protein concentration of 1 mg/mL and final iron chloride concentrations of 0, 0.25, 0.5, 1, 2, 4, 8, 16 and 32 mM.
A fluorescence emission scan from 515-700 nm using an excitation wavelength of 498 nm was then performed on all samples using a Thermofisher Varioskan Flash (Instrument version 4.00.52). R-phycoerythrin has an emission maximum of 575 nm and therefore if iron binding occurs with the linear tetrapyrrole moiety of the protein, a change in fluorescence will be observed.

Series [3] can be described thus: Differential scanning fluorometry (DSF) thermal denaturation of clarified phycoerythrin. Type of series: physicochemical. Particulars: heated 25-95° C. at 0.5° C./10 sec. Here is the method: (§1) Therefore, to gain a precise measurement of the thermal denaturation temperature of phycoerythrin, differential scanning fluorometry (DSF) was undertaken by heating 100 uL of clarified phycoerythrin from 25-95° C. by increasing the temperature by 0.5° C./10 sec.
On the technique in general: DSF heats the sample and reads unfolding from a dye or from intrinsic fluorescence.

The nature of series [4]: Heating of phycoerythrin extracts, colour change visualised. Type of series: physicochemical. The protocol: First, the crude, homogenised phycoerythrin, before clarification, was heated at 95° C. for 5 min and the colour change visualised.
as §1
Thermal denaturation of each Phycoerythrin sample (a)-(d) was undertaken. The results are depicted in FIG. 4.

[5] abbreviates: 25 μM Fe solutions, with 4 mg/mL phycoerythrin, 80 μM ascorbic acid.
[6] abbreviates: 25 μM Fe solutions, with 8 mg/mL phycoerythrin, 80 μM ascorbic acid.
Setting [7] is: 25 μM Fe solutions, without phycoerythrin, 80 μM ascorbic acid.
The mark [8] stands for this setting: 25 μM iron, co-treatment with 4 or 8 mg/mL phycoerythrin.
Setting [9] is: 50 μM Fe solutions, with 4 mg/mL phycoerythrin, 80 μM ascorbic acid.
The mark [10] stands for this setting: 50 μM Fe solutions, with 8 mg/mL phycoerythrin, 80 μM ascorbic acid.
Setting [11] is: 50 μM Fe solutions, without phycoerythrin, 80 μM ascorbic acid.

These results are taken from patent publication US20240268421A1, “FOOD COLOURING AGENTS” (v2food Pdy Ltd, priority 2020, published 2024).

In the case of `[Cl][Fe][Cl]` [Fe (II) chloride, Iron (II) chloride], the Ferritin came to 15.8 ± 1.7 ng/mL in series [1] (setting [5]); 13.9 ± 1.8 ng/mL in series [1] (setting [6]); 4.4 ± 1.0 ng/mL in series [1] (setting [7]); 10.1 ± 3.5 ng/mL in series [1] (setting [9]); 16.0 ± 5.9 ng/mL in series [1] (setting [10]); 5.2 ± 1.6 ng/mL in series [1] (setting [11]). The “Ferritin production compared to cells only treated with the iron solution” value in series [1] (setting [8]) is reported as “significantly improved ferritin production”.
Turning to `[Cl][Fe]([Cl])[Cl]` [Fe (III) chloride, Iron (III) chloride], the Ferritin is listed as 12.7 ± 0.9 ng/mL in series [1] (setting [5]); 12.7 ± 1.1 ng/mL in series [1] (setting [6]); 3.3 ± 0.5 ng/mL in series [1] (setting [7]); 13.0 ± 3.1 ng/mL in series [1] (setting [9]); 1.8 ± 0.6 ng/mL in series [1] (setting [10]); 1.7 ± 0.8 ng/mL in series [1] (setting [11]). In addition, the “Ferritin production compared to cells only treated with the iron solution” value in series [1] (setting [8]) is on record as “significantly improved ferritin production”; in series [1] (50 μM iron, co-treatment with 4 mg/mL phycoerythrin), “significantly improved ferritin production”.
On to phycoerythrin, for which, in series [2], the “Change of fluorescence emission with iron” value is on record as “decrease in phycoerythrin fluorescence with increasing iron concentration”. Moreover, the Ferritin in series [1] (No Fe, 4 mg/mL phycoerythrin (section of 25 μM Fe solutions)) was 12.2 ± 0.3 ng/mL; in series [1] (No Fe, 8 mg/mL phycoerythrin (section of 25 μM Fe solutions)), 7.5 ± 1.6^ ng/mL; in series [1] (No Fe, 8 mg/mL phycoerythrin (section of 50 μM Fe solutions)) it was 2.5 ± 0.4 ng/mL. The “Ferritin production compared to treatment with iron solutions” value in series [1] (only 4 mg/mL phycoerythrin, no added iron) was “significantly increased ferritin production”. In addition, the “Ferritin production compared to treatment with ferric chloride” value in series [1] (only 8 mg/mL phycoerythrin, no added iron) is recorded as “significantly increased ferritin”. Further, the “Thermal denaturation temperature where phycoerythrin loses its fluorescence” value in series [3] came out at 77 °C. Besides, the “Colour change upon heating” value in series [4] (60° C. and 70° C. for 1 hour) is on record as “no colour change”; in series [4] (crude, homogenised, before clarification, 95° C. for 5 min), “turned from red to brown”.
